Test results as given in PMC8546689, “High-Throughput Screen for Inhibitors of the Type IV Pilus Assembly ATPase PilB” (mSphere, 2021).
Blank lines part the entries; values can stand above or below the molecule they belong to.

Assays:
Type in all cases: binding
[1] = biological target: T1, PilB (CtPilB), type IV pilus assembly ATPase (Chloracidobacterium thermophilum, UniProt G2LDI3); experiment: competitive displacement of fluorescent MANT-ATP
T1 construct: gene Cabther_A1696

[2] = biological target: T1, PilB (CtPilB), type IV pilus assembly ATPase; experiment: competitive displacement of fluorescent MANT-ATP (IC50 […])
[3] = biological target: T1, PilB (CtPilB), type IV pilus assembly ATPase; experiment: fluorescence enhancement titration of MANT-ATP with CtPilB

T1 sequence (G2LDI3 entry or part of it): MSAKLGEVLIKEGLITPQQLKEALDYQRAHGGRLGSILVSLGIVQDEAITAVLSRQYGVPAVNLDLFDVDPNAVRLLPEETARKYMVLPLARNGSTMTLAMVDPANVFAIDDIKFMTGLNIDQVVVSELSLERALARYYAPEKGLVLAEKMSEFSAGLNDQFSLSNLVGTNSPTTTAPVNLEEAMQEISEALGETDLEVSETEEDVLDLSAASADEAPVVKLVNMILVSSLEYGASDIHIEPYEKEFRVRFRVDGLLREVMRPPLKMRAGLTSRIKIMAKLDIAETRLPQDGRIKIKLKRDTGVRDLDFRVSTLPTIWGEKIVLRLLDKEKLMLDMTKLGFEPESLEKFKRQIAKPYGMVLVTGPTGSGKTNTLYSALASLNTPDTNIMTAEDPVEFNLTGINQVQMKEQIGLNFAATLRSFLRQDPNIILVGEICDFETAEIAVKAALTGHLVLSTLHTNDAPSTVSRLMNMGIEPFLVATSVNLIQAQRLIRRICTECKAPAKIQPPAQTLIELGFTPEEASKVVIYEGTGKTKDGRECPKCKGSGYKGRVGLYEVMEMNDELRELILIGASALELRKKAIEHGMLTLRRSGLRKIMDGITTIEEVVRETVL

IC50 [1]: 3070 nM
Structure (SMILES): Nc1ncnc2c1ncn2[C@@H]1O[C@H](COP(=O)(O)OP(=O)(O)O)[C@@H](O)[C@H]1O [ADP]

Structure (SMILES): Nc1ncnc2c1ncn2[C@@H]1O[C@H](COP(=O)(O)OP(=O)(O)OP(=O)(O)O)[C@@H](O)[C@H]1O [ATP]
Ki [2]: 2200 nM

Kd [3]: 290 ± 10 nM
Structure (SMILES): CNc1ccccc1C(=O)O[C@H]1[C@@H](O)[C@H](n2cnc3c(N)ncnc32)O[C@@H]1CO[P@@](=O)(O)O[P@](=O)(O)OP(=O)(O)O [MANT-ATP]
